pIC50: −log10 of the molar value.
Legend:
[1] = target: T1, Recombinant STAT6 protein (STAT6(W123-T658)) (Homo sapiens, UniProt P42226); assay: STAT6 Fluorescence Polarization (FP) Assay; assay type: binding; settings: STAT6(W123-T658) 250 nM, probe 5-FAM-ApYKPFQDLI-NH2 2 nM, 45-minute incubation
T1 construct: Recombinant STAT6 protein (STAT6(W123-T658))
T1 sequence (P42226 123-658): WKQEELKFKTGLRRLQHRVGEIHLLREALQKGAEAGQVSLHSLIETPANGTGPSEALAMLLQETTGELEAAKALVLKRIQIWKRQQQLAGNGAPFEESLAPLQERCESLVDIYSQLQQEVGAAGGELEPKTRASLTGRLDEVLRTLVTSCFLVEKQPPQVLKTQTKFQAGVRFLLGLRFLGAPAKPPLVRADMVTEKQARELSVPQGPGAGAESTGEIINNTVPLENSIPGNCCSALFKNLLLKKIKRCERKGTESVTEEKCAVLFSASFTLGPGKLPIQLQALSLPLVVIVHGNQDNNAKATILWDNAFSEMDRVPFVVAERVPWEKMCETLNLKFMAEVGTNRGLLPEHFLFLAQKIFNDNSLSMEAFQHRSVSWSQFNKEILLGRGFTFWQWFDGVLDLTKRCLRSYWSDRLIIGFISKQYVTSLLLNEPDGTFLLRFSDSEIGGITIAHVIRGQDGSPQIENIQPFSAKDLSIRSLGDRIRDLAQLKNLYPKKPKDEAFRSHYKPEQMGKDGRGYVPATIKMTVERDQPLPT
Procedure, shortened: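 Displacement of a fluorescent phosphotyrosine peptide (5-FAM-ApYKPFQDLI-NH2, 2 nM) from STAT6(W123-T658) (250 nM), 1% DMSO, pH 7.4 HEPES buffer. After 45 min at room temperature, polarization (mP) was plotted versus log compound concentration and fitted by nonlinear regression to give IC50.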

[2] = target: T2, Recombinant STAT3 protein (STAT3(G127-I722)) (Homo sapiens, UniProt P40763); assay: STAT3 Fluorescence Polarization (FP) Assay; assay type: binding; settings: STAT3(G127-I722) 25 nM, probe 5-FAM-GpYLPQTV-NH2 2 nM, 45-minute incubation
T2 construct: Recombinant STAT3 protein (STAT3(G127-I722))
T2 sequence (P40763 127-722): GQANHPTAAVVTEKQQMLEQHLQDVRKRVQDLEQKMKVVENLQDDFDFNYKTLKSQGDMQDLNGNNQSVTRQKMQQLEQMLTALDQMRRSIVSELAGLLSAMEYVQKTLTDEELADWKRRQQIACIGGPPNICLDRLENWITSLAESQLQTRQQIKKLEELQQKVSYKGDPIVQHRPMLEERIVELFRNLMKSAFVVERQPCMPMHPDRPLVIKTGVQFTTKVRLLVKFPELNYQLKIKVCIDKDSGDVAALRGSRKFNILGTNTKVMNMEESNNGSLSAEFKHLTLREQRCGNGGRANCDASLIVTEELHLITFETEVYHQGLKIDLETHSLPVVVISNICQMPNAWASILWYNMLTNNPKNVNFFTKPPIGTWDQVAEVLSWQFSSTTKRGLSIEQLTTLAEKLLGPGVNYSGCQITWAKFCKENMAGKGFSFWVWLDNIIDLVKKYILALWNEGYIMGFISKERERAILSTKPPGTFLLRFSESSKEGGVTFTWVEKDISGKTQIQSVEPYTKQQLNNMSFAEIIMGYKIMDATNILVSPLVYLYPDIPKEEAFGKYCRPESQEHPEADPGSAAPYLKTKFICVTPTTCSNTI
Procedure, shortened: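 STAT3(G127-I722), 25 nM, was mixed with 2 nM 5-FAM-GpYLPQTV-NH2 probe in HEPES pH 7.4 buffer with 1% DMSO and serially diluted compound. FP (mP) was read after 45 min at room temperature. IC50 came from nonlinear regression.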

SMILES	pIC50 [1]	pIC50 [2]
O=C(N[C@H]1CN(Cc2ccn3ccnc3c2)CC[C@H]2CC[C@@H](C(=O)N3CC(c4cccnc4)C3)N2C1=O)c1cc2cc(CP(=O)(O)O)ccc2s1 [Compound 235, ((2-(((5S,8S,10aR)-3-(imidazo[1,2-a]pyridin-7-ylmethyl)-6-oxo-8-(3-(pyridin-3-yl)azetidine-1-carbonyl)decahydropyrrolo[1,2-a][1,5]diazocin-5-yl)carbamoyl)benzo[b]thiophen-5-yl)methyl)phosphonic acid]	< 4.52	≥ 7.00
CN(C)C(=O)[C@@H]1CC[C@@H]2CCN(Cc3ccccc3)C[C@H](NC(=O)c3cc4cc(C(F)(F)P(=O)(O)O)ccc4[nH]3)C(=O)N21 [Compound 225, ((2-(((5S,8S,10aR)-3-benzyl-8-(dimethylcarbamoyl)-6-oxodecahydropyrrolo[1,2-a][1,5]diazocin-5-yl)carbamoyl)-1H-indol-5-yl)difluoromethyl)phosphonic acid]	4.52 to 5.52	5.00 to 6.00
CC(=O)N1CC[C@H]2CC[C@@H](C(=O)N(C)CC(C)(C)O)N2C(=O)[C@@H](NC(=O)c2cc3cc(C(F)(F)P(=O)(O)O)ccc3s2)C1 [Compound 91, ((2-(((5S,8S,10aR)-3-acetyl-8-((2-hydroxy-2-methylpropyl)(methyl)carbamoyl)-6-oxodecahydropyrrolo[1,2-a][1,5]diazocin-5-yl)carbamoyl)benzo[b]thiophen-5-yl)difluoromethyl)phosphonic acid]	5.52 to 6.52	5.00 to 6.00
CCOc1ccc(N(C)C(=O)[C@@H]2CC[C@@H]3CCN(C(C)=O)C[C@H](NC(=O)c4cc5cc(C(F)(F)P(=O)(O)O)ccc5[nH]4)C(=O)N32)cc1 [Compound 101, ((2-(((5S,8S,10aR)-3-acetyl-8-((4-ethoxyphenyl)(methyl)carbamoyl)-6-oxodecahydropyrrolo[1,2-a][1,5]diazocin-5-yl)carbamoyl)-1H-indol-5-yl)difluoromethyl)phosphonic acid]	5.52 to 6.52	5.00 to 6.00
CCN1CC[C@H]2CC[C@@H](C(=O)N3CC(C(=O)N4CCOCC4)C3)N2C(=O)[C@@H](NC(=O)c2cc3cc(C(F)(F)P(=O)(O)O)ccc3s2)C1 [Compound 278, ((2-(((5S,8S,10aR)-3-ethyl-8-(3-(morpholine-4-carbonyl)azetidine-1-carbonyl)-6-oxodecahydropyrrolo[1,2-a][1,5]diazocin-5-yl)carbamoyl)benzo[b]thiophen-5-yl)difluoromethyl)phosphonic acid]	4.52 to 5.52	6.00 to 7.00
CC(=O)N1CC[C@H]2CC[C@@H](C(=O)N(C)c3ccccc3)N2C(=O)[C@@H](NC(=O)/C=C(\C)c2cccc(C(F)(F)P(=O)(O)O)c2)C1 [Compound 50, ((3-((E)-4-(((5S,8S,10aR)-3-acetyl-8-(methyl(phenyl)carbamoyl)-6-oxodecahydropyrrolo[1,2-a][1,5]diazocin-5-yl)amino)-4-oxobut-2-en-2-yl)phenyl)difluoromethyl)phosphonic acid]	4.52 to 5.52	< 5.00
CC(=O)N1CC[C@H]2CC[C@@H](C(=O)N(C)c3ccc(C(C)(C)CO)cc3)N2C(=O)[C@@H](NC(=O)c2cc3cc(C(F)(F)P(=O)(O)O)ccc3s2)C1 [Compound 156, ((2-(((5S,8S,10aR)-3-acetyl-8-((4-(1-hydroxy-2-methylpropan-2-yl)phenyl)(methyl)carbamoyl)-6-oxodecahydropyrrolo[1,2-a][1,5]diazocin-5-yl)carbamoyl)benzo[b]thiophen-5-yl)difluoromethyl)phosphonic acid]	5.52 to 6.52	5.00 to 6.00
C[C@@H](C(=O)N1CC[C@H]2CC[C@@H](C(=O)Nc3ccc(-c4ccccc4)cc3)N2C(=O)[C@@H](NC(=O)c2cc3cc(C(F)(F)P(=O)(O)O)ccc3[nH]2)C1)c1ccccc1 [Compound 254, ((2-(((5S,8S,10aR)-8-([1,1′-biphenyl]-4-ylcarbamoyl)-6-oxo-3-((R)-2-phenylpropanoyl)decahydropyrrolo[1,2-a][1,5]diazocin-5-yl)carbamoyl)-1H-indol-5-yl)difluoromethyl)phosphonic acid]	5.52 to 6.52	5.00 to 6.00
CC(=O)N1CC[C@H]2CC[C@@H](C(=O)N3CCCC3Cc3ccc(F)cc3)N2C(=O)[C@@H](NC(=O)c2cc3cc(C(F)(F)P(=O)(O)O)ccc3[nH]2)C1 (stereo partly drawn) [Compound 130, ((2-(((5S,8S,10aR)-3-acetyl-8-(2-(4-fluorobenzyl)pyrrolidine-1-carbonyl)-6-oxodecahydropyrrolo[1,2-a][1,5]diazocin-5-yl)carbamoyl)-1H-indol-5-yl)difluoromethyl)phosphonic acid]	5.52 to 6.52	5.00 to 6.00
CC(=O)N1CC[C@H]2CC[C@@H](C(=O)Nc3cnc(S(C)(=O)=O)nc3)N2C(=O)[C@@H](NC(=O)c2cc3cc(C(F)(F)P(=O)(O)O)ccc3s2)C1 [Compound 94, ((2-(((5S,8S,10aR)-3-acetyl-8-((2-(methylsulfonyl)pyrimidin-5-yl)carbamoyl)-6-oxodecahydropyrrolo[1,2-a][1,5]diazocin-5-yl)carbamoyl)benzo[b]thiophen-5-yl)difluoromethyl)phosphonic acid]	5.52 to 6.52	5.00 to 6.00

Second part, the compound after the results:

pIC50 [1]	pIC50 [2]	SMILES
5.52 to 6.52	< 5.00	O=C(N[C@H]1CN(C(=O)c2cc3ncccn3n2)CC[C@H]2CC[C@@H](C(=O)N3CCOCC3)N2C1=O)c1ccc2ccc(C(F)P(=O)(O)O)cc2c1 (stereo partly drawn) [Compound 359, (fluoro(7-(((5S,8S,10aR)-8-(morpholine-4-carbonyl)-6-oxo-3-(pyrazolo[1,5-a]pyrimidine-2-carbonyl)decahydropyrrolo[1,2-a] [1,5]diazocin-5-yl)carbamoyl)naphthalen-2-yl)methyl)phosphonic acid]
5.52 to 6.52	5.00 to 6.00	CC(=O)N1CC[C@H]2CC[C@@H](C(=O)Nc3ccc(-c4ccccc4)cc3)N2C(=O)[C@@H](NC(=O)c2cc3cc(C(F)(F)P(=O)(O)O)c(F)cc3s2)C1 [Compound 46, ((2-(((5S,8S,10aR)-8-([1,1′-biphenyl]-4-ylcarbamoyl)-3-acetyl-6-oxodecahydropyrrolo[1,2-a][1,5]diazocin-5-yl)carbamoyl)-6-fluorobenzo[b]thiophen-5-yl)difluoromethyl)phosphonic acid]
5.52 to 6.52	6.00 to 7.00	C[C@H](C(=O)N1CC[C@H]2CC[C@@H](C(=O)Nc3ccc(-c4ccccc4)cc3)N2C(=O)[C@@H](NC(=O)c2cc3cc(C(F)(F)P(=O)(O)O)ccc3[nH]2)C1)c1ccccc1 [Compound 255, ((2-(((5S,8S,10aR)-8-([1,1′-biphenyl]-4-ylcarbamoyl)-6-oxo-3-((S)-2-phenylpropanoyl)decahydropyrrolo[1,2-a][1,5]diazocin-5-yl)carbamoyl)-1H-indol-5-yl)difluoromethyl)phosphonic acid]
5.52 to 6.52	5.00 to 6.00	CCC(=O)N(C)[C@@H]1CCN(C(=O)[C@@H]2CC[C@@H]3CCN(C(C)=O)C[C@H](NC(=O)c4cc5cc(C(F)(F)P(=O)(O)O)ccc5[nH]4)C(=O)N32)C1 [Compound 23, ((2-(((5S,8S,10aR)-3-acetyl-8-((R)-3-(N-methylpropionamido)pyrrolidine-1-carbonyl)-6-oxodecahydropyrrolo[1,2-a][1,5]diazocin-5-yl)carbamoyl)-1H-indol-5-yl)difluoromethyl)phosphonic acid]
≥ 6.52	5.00 to 6.00	Cc1ccc2onc(C(=O)N3CC[C@H]4CC[C@@H](C(=O)N5C[C@H](c6ccn(C)c(=O)c6)CC56CC6)N4C(=O)[C@@H](NC(=O)c4ccc5ccc(C(F)(F)P(=O)(O)O)cc5c4)C3)c2c1 [Compound 382, (difluoro(7-(((5S,8S, 10aR)-8-((S)-6-(1-methyl-2-oxo-1,2-dihydropyridin-4-yl)-4-azaspiro[2.4]heptane-4-carbonyl)-3-(5-methylbenzo[d]isoxazole-3-carbonyl)-6-oxodecahydropyrrolo [1,2-a][1,5]diazocin-5-yl)carbamoyl)naphthalen-2-yl)methyl)phosphonic acid]
≥ 6.52	< 5.00	Cc1ccc2onc(C(=O)N3CC[C@H]4CC[C@@H](C(=O)N5C[C@H](c6ccn(C)c(=O)c6)CC56CC6)N4C(=O)[C@@H](NC(=O)c4ccc5ccc([C@@H](F)P(=O)(O)O)cc5c4)C3)c2c1 [Compound 391, ((S)-fluoro(7-(((5S, 8S,10aR)-8-((S)-6-(1-methyl-2-oxo-1,2-dihydropyridin-4-yl)-4-azaspiro[2.4]heptane-4-carbonyl)-3-(5-methylbenzo[d]isoxazole-3-carbonyl)-6-oxodecahydropyrrolo [1,2-a][1,5]diazocin-5-yl)carbamoyl)naphthalen-2-yl)methyl) phosphonic acid]

Reference: patent publication US20250179103A1, “6-OXODECAHYDROPYRROLO[1,2-A][1,5]DIAZOCINE AND 6-OXODECAHYDRO-4H-PYRROLO[2,1-D][1,5]THIAZOCINE DERIVATIVES AS STAT3 AND STAT6 MODULATORS FOR THE TREATMENT OF CANCER AND INFLAMMATORY CONDITIONS” (Recludix Pharma, Inc., priority 2022, published 2025)
